# Where two headings read alike, the source gives them in different places.
# Tests used:
# [1] = target: T1, SOS1 catalytic domain (residues 564-1049) (Homo sapiens, UniProt Q07889); test: Mode of Action Assay: inhibition of SOS1 nucleotide exchange activity (SOS1 TR-FRET IC50 Assay)
# T1 sequence (Q07889 564-1049): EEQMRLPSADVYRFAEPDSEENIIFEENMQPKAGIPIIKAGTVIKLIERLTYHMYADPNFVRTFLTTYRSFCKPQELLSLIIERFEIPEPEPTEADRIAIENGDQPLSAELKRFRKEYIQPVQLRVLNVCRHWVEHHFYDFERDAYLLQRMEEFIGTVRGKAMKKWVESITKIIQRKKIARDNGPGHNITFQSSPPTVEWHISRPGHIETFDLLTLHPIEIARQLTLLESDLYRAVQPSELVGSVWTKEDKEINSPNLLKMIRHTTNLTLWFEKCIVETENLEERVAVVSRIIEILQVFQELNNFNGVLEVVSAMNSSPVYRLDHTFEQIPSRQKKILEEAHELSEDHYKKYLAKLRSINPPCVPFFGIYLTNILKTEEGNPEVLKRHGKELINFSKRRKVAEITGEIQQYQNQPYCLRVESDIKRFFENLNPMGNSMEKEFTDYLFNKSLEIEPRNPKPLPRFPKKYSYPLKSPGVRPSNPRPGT
# [2] = test system: PC-9 cells (EGFR Ex19Del); test: Potency Assay: pERK (SOS1 pERK IC50 Assay, AlphaLISA SureFire Ultra p-ERK1/2); assay type: cell-based; conditions: Homo sapiens, read-out: SOS1 pERK IC50
# Experimental: The purpose of this assay is to measure the ability of test compounds to inhibit SOS1 function in cells. SOS1 activates RAS proteins by catalyzing the conversion of RAS GDP to RAS GTP in response to receptor tyrosine kinase activation. […] The procedure described below measures the level of cellular pERK in response to test compounds in PC-9 cells (EGFR Ex19Del).
# PC-9 cells were grown and maintained using media and procedures recommended by the ATCC. On the day prior to compound addition, cells were plated in 384-well cell culture plates (40 μL/well) and grown overnight in a 37° C., 5% CO2 incubator. Test compounds were prepared in 10, 3-fold dilutions in DMSO, with a top concentration of 10 mM. On the day of the assay, 40 nL of test compound was added to each well of cell culture plate using an Echo550 liquid handler (LabCyte). Concentrations of test compound were tested in duplicate with highest test concentration being 10 μM. After compound addition, cells were incubated for 1 hour at 37° C., 5% CO2. Following incubation, culture medium was removed and cells were washed once with phosphate buffered saline.
# Cellular pERK level was determined using the AlphaLISA SureFire Ultra p-ERK1/2 Assay Kit (PerkinElmer). Cells were lysed in 25 μL lysis buffer, with shaking at 600 RPM at room temperature for 15 minutes. Lysate (10 μL) was transferred to a 384-well Opti-plate (PerkinElmer) and 5 μL acceptor mix was added. The plate was centrifuged at 1000 RPM for 1 minute, and incubated in the dark for 2 hours. Following this incubation, 5 μL of donor mix was added, the plate was sealed and centrifuged at 1000 RPM for 1 minute, and the mixture was incubated for 2 hours at room temperature. Signal was read on an Envision plate reader (PerkinElmer) using standard AlphaLISA settings. Analysis of raw data was carried out in Excel (Microsoft) and Prism (GraphPad). Signal was plotted vs. the decadal logarithm of compound concentration, and IC50 was determined by fitting a 4-parameter sigmoidal concentration response model.
# [3] = PC-9 cells (EGFR Ex19Del), 1 hour incubation, AlphaLISA p-ERK1/2
SMILES,IC50 [1],"IC50 [2, 3]","IC50 ([2]; PC-9, 1 h)"
COC12CCC(C(=O)N3CCc4nc(Cl)nc(N[C@H](C)c5cc(N)cc(C(F)(F)F)c5)c4C3)(CC1)C2 [Example 196],> 1000 nM,> 1000 nM,–
"C[C@@H](Nc1nc(Cl)nc2c1CN(C(=O)N1CCOCC1)C2)c1cccc(C(F)(F)F)n1 [Example 473, 2-chloro-6-(morpholine-4-carbonyl)-N-[(1R)-1-[6-(trifluoromethyl)pyridin-2-yl]ethyl]-5H,6H,7H-pyrrolo[3,4-d]pyrimidin-4-amine]",> 1000 nM,> 1000 nM,–
"Cc1nc2c(c(N[C@H](C)c3cc(N)cc(C(F)(F)F)c3)n1)CN(CC1CCOC1)C2 (stereo partly drawn) [Example 111, N-[(1R)-1-[3-amino-5-(trifluoromethyl)phenyl]ethyl]-2-methyl-6-(tetrahydrofuran-3-ylmethyl)-5,7-dihydropyrrolo[3,4-d]pyrimidin-4-amine]",> 1000 nM,> 1000 nM,–
"CC(Nc1nc(Cl)nc2c1CN(C(=O)N1CCOCC1)C2)c1cccc(C2CC2)c1 (centres unmarked) [Example 534, [2-chloro-4-[1-(3-cyclopropylphenyl)ethylamino]-5,7-dihydropyrrolo[3,4-d]pyrimidin-6-yl]-morpholino-methanone]",> 1000 nM,–,> 1000 nM
C[C@@H](Nc1nc(Cl)nc2c1CN(C(=O)C13CC(C)(C1)OC31COC1)CC2)c1cc(N)cc(C(F)(F)F)c1 [Example 210],> 1000 nM,> 1000 nM,–
"C[C@@H](Nc1nc(Cl)nc2c1CN([C@H]1CC[C@H](C(=O)N(C)C)CC1)C2)c1cc(N)cc(C(F)(F)F)c1 [Example 57, 4-[4-[[(1R)-1-[3-amino-5-(trifluoromethyl)phenyl]ethyl]amino]-2-chloro-5,7-dihydropyrrolo[3,4-d]pyrimidin-6-yl]-N,N-dimethyl-cyclohexanecarboxamide]",> 1000 nM,> 1000 nM,–
COc1c(C(F)F)cccc1C(C)Nc1nc(Cl)nc2c1CN(C(=O)N1CCOCC1)C2 (centres unmarked) [Example 494],> 1000 nM,> 1000 nM,–
C[C@@H](Nc1nc(Cl)nc2c1CN(C(=O)C1(C#N)CCC1)CC2)c1cc(N)cc(C(F)(F)F)c1 [Example 202],> 1000 nM,> 1000 nM,–
"C[C@@H](Nc1nc(Cl)nc2c1CN(C(=O)N1CCOCC1)C2)c1cnc(C(F)(F)F)s1 [Example 474, 2-chloro-6-(morpholine-4-carbonyl)-N-[(1R)-1-[2-(trifluoromethyl)-1,3-thiazol-5-yl]ethyl]-5H,6H,7H-pyrrolo[3,4-d]pyrimidin-4-amine]",> 1000 nM,> 1000 nM,–
CC(O)c1cccc(C(C)Nc2ncnc3c2CN(C(=O)N2CCOCC2)C3)c1 (centres unmarked) [Example 516],> 1000 nM,> 1000 nM,–
C[C@@H](Nc1nc(Cl)nc2c1CN(C(=O)C13OCCCC1C3(F)F)CC2)c1cc(N)cc(C(F)(F)F)c1 (some centres unmarked) [Example 214],> 1000 nM,> 1000 nM,–
C[C@@H](Nc1nc(Cl)nc2c1CN(C(=O)C13CC(C1)C3)CC2)c1cc(N)cc(C(F)(F)F)c1 [Example 211],> 1000 nM,> 1000 nM,–
C[C@@H](Nc1nc(Cl)nc2c1CN(C(=O)C13COC(CCO1)C3)CC2)c1cc(N)cc(C(F)(F)F)c1 (some centres unmarked) [Example 220],> 1000 nM,> 1000 nM,–
"CC(Nc1nc(Cl)nc2c1CN(C(=O)N1CCOCC1)C2)c1cc(N)c(F)c(C(F)(F)F)c1 (centres unmarked) [Example 533, [4-[1-[3-amino-4-fluoro-5-(trifluoromethyl)phenyl]ethylamino]-2-chloro-5,7-dihydropyrrolo[3,4-d]pyrimidin-6-yl]-morpholino-methanone]",> 1000 nM,< 1000 nM,–

# Now from value to molecule, other results behind:
IC50 [1],"IC50 [2, 3]",SMILES,"IC50 ([2]; PC-9, 1 h)"
> 1000 nM,> 1000 nM,"CC(Nc1nc(Cl)nc2c1CN(C(=O)N1CCOCC1)C2)c1cccc(S(F)(F)(F)(F)F)c1 (centres unmarked) [Example 462, [2-chloro-4-[1-[3-(pentafluoro-sulfanyl)phenyl]ethylamino]-5,7-dihydropyrrolo[3,4-d]pyrimidin-6-yl]-morpholino-methanone]",–
> 1000 nM,> 1000 nM,"CC(Nc1nc(Cl)nc2c1CN(C(=O)N1CCOCC1)C2)c1cc(C(F)(F)F)ccn1 (centres unmarked) [Example 472, 2-chloro-6-(morpholine-4-carbonyl)-N-{1-[4-(trifluoromethyl)pyridin-2-yl]ethyl}-5H,6H,7H-pyrrolo[3,4-d]pyrimidin-4-amine]",–
> 1000 nM,> 1000 nM,C[C@@H](Nc1nc(Cl)nc2c1CN(C(=O)[C@]13COC[C@H]1CS(=O)(=O)C3)CC2)c1cc(N)cc(C(F)(F)F)c1 [Example 215],–
< 1000 nM,< 1000 nM,"C[C@@H](Nc1ncnc2c1CN(C1CCOCC1)C(=O)N2C)c1cc(N)cc(C(F)(F)F)c1 [Example 176, (R)-5-((1-(3-amino-5-(trifluoromethyl)phenyl)ethyl)amino)-1-methyl-3-(tetrahydro-2H-pyran-4-yl)-3,4-dihydropyrimido[4,5-d]pyrimidin-2(1H)-one]",–
> 1000 nM,> 1000 nM,COC1CN([C@@H]2CCc3ncnc(N[C@H](C)c4cccc(C(F)F)c4F)c3C2)C1 [Example 443],–
< 1000 nM,< 1000 nM,COC1(C(=O)N2Cc3nc(Cl)nc(N[C@H](C)c4cccc(C(F)(F)CO)c4)c3C2)CN(C2COC2)C1 [Example 267],–
< 1000 nM,> 1000 nM,"C[C@@H](Nc1nc(CNC2COC2)nc2c1CN(C(=O)N1CCOCC1)C2)c1cccc(C(F)F)c1F [Example 509, N-[(1R)-1-[3-(difluoromethyl)-2-fluorophenyl]ethyl]-6-(morpholine-4-carbonyl)-2-{[(oxetan-3-yl)amino]methyl}-5H,6H,7H-pyrrolo-[3,4-d]pyrimidin-4-amine]",–
< 1000 nM,> 1000 nM,"CNCc1nc2c(c(N[C@H](C)c3cc(N)cc(C(F)(F)F)c3)n1)CN(C(=O)N1CCOCC1)C2 [Example 503, N-[(1R)-1-[3-amino-5-(trifluoro-methyl)phenyl]ethyl]-2-[(methylamino)methyl]-6-(morpholine-4-carbonyl)-5H,6H,7H-pyrrolo[3,4-d]-pyrimidin-4-amine]",–
< 1000 nM,> 1000 nM,C[C@@H](Nc1nc(Cl)nc2c1CN(C(=O)[C@@H]1COC[C@@H]1N)C2)c1cccc(C(F)F)c1F [Example 308],–
< 1000 nM,> 1000 nM,"C[C@@H](Nc1nc(Cl)nc2c1CN(C1CNC1)CC2)c1cccc(C(F)(F)F)c1 [Example 177, (R)-6-(azetidin-3-yl)-2-chloro-N-(1-(3-(trifluoromethyl)phenyl)ethyl)-5,6,7,8-tetrahydropyrido[4,3-d]pyrimidin-4-amine]",–
< 1000 nM,> 1000 nM,COCC1(C(=O)N2CCc3nc(Cl)nc(N[C@H](C)c4cc(N)cc(C(F)(F)F)c4)c3C2)CCC1 [Example 204],–
< 1000 nM,> 1000 nM,"C[C@@H](Nc1nc(Cl)nc2c1CN(C(=O)N1CCOCC1)C2)c1cccc(C(F)(F)OC2CC2)c1 [Example 524, 2-chloro-N-[(1R)-1-[3-(cyclopropoxydifluoromethyl)phenyl]ethyl]-6-(morpholine-4-carbonyl)-5H,6H,7H-pyrrolo[3,4-d]pyrimidin-4-amine]",–
< 1000 nM,< 1000 nM,"Cc1nc2c(c(N[C@H](C)c3cc(N)cc(C(F)(F)F)c3)n1)CN(S(=O)(=O)N1CCN(C)CC1)C2 [Example 38, (R)—N-(1-(3-amino-5-(trifluoromethyl)phenyl)ethyl)-2-methyl-6-((4-methylpiperazin-1-yl)sulfonyl)-6,7-dihydro-5H-pyrrolo[3,4-d]pyrimidin-4-amine]",–
< 1000 nM,> 1000 nM,"C[C@@H](Nc1nc(Cl)nc2c1CN(C(=O)N1CCOCC1)C2)c1cccc(C(F)CO)c1 (stereo partly drawn) [Example 519, [2-chloro-4-[[(1R)-1-[3-(1-fluoro-2-hydroxy-ethyl)phenyl]ethyl]amino]-5,7-dihydropyrrolo[3,4-d]pyrimidin-6-yl]-morpholino-methanone]",–

# Source: patent US20230096028A1, “BICYCLIC HETEROCYCLYL COMPOUNDS AND USES THEREOF” (Revolution Medicines, Inc., priority 2019, published 2023)
